# Measured values reported in PubChem BioAssay (NCI).
#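 GI50 marks 50% less growth. At the TGI there is no net growth.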
# Tests used:
# Test in all cases: DTP human tumour cell line panel, 384-well format
# COLO 205 colon = test system: COLO 205 colon
# SN12C renal = test system: SN12C renal
# HOP-92 NSCLC = test system: HOP-92 NSCLC
# HCT-15 colon = test system: HCT-15 colon
# ACHN renal = test system: ACHN renal
# SNB-75 CNS = test system: SNB-75 CNS
# DU-145 prostate = test system: DU-145 prostate
# HT29 colon = test system: HT29 colon
# UACC-62 melanoma = test system: UACC-62 melanoma
# KM12 colon = test system: KM12 colon
# UO-31 renal = test system: UO-31 renal
# M14 melanoma = test system: M14 melanoma
# UACC-257 melanoma = test system: UACC-257 melanoma
# NCI-H23 lung = test system: NCI-H23 lung
# SF-295 CNS = test system: SF-295 CNS
# IGROV1 ovarian = test system: IGROV1 ovarian
# HOP-62 NSCLC = test system: HOP-62 NSCLC
# NCI/ADR-RES ovarian = test system: NCI/ADR-RES ovarian
# CAKI-1 renal = test system: CAKI-1 renal
# SK-MEL-28 melanoma = test system: SK-MEL-28 melanoma
# TK-10 renal = test system: TK-10 renal
# OVCAR-4 ovarian = test system: OVCAR-4 ovarian
# OVCAR-5 ovarian = test system: OVCAR-5 ovarian
# LOX IMVI melanoma = test system: LOX IMVI melanoma
# A498 renal = test system: A498 renal
# EKVX NSCLC = test system: EKVX NSCLC
# NCI-H226 lung = test system: NCI-H226 lung
# 786-0 renal = test system: 786-0 renal
# MALME-3M melanoma = test system: MALME-3M melanoma
# SK-OV-3 ovarian = test system: SK-OV-3 ovarian
# PC-3 prostate = test system: PC-3 prostate
# BT-549 breast = test system: BT-549 breast
# HCC-2998 colon = test system: HCC-2998 colon
# MCF7 breast = test system: MCF7 breast
# MOLT-4 leukemia = test system: MOLT-4 leukemia
# MDA-MB-468 breast = test system: MDA-MB-468 breast
# SW-620 colon = test system: SW-620 colon
# HL-60(TB) leukemia = test system: HL-60(TB) leukemia
# RXF 393 renal = test system: RXF 393 renal
# T-47D breast = test system: T-47D breast
# SNB-19 CNS = test system: SNB-19 CNS
# SK-MEL-2 melanoma = test system: SK-MEL-2 melanoma
# OVCAR-3 ovarian = test system: OVCAR-3 ovarian
# MDA-MB-231 breast = test system: MDA-MB-231 breast
# SF-268 CNS = test system: SF-268 CNS
# SK-MEL-5 melanoma = test system: SK-MEL-5 melanoma
# NCI-H322M lung = test system: NCI-H322M lung
# SR leukemia = test system: SR leukemia
# U251 glioblastoma = test system: U251 glioblastoma
# HS 578T breast = test system: HS 578T breast
# A549 NSCLC = test system: A549 NSCLC
# NCI-H522 lung = test system: NCI-H522 lung
# OVCAR-8 ovarian = test system: OVCAR-8 ovarian
# RPMI-8226 leukemia = test system: RPMI-8226 leukemia
# MDA-MB-435 melanoma = test system: MDA-MB-435 melanoma
# CCRF-CEM leukemia = test system: CCRF-CEM leukemia
# NCI-H460 NSCLC = test system: NCI-H460 NSCLC
# SF-539 CNS = test system: SF-539 CNS
structure (smiles),measurement,setting,value
O=C(c1c(F)ccc(NS(=O)(=O)N2CC[C@@H](F)C2)c1F)c1c[nH]c2ncc(-c3cnc(C4CC4)nc3)cc12,GI50,COLO 205 colon,< 0.01 µM
same,TGI,COLO 205 colon,0.021 µM
same,GI50,SN12C renal,7.66 µM
same,TGI,SN12C renal,> 100 µM
same,GI50,HOP-92 NSCLC,4.13 µM
same,TGI,HOP-92 NSCLC,25.1 µM
same,GI50,HCT-15 colon,4.8 µM
same,TGI,HCT-15 colon,20.9 µM
same,GI50,ACHN renal,4.77 µM
same,TGI,ACHN renal,20.7 µM
same,GI50,SNB-75 CNS,5.65 µM
same,TGI,SNB-75 CNS,17.9 µM
same,GI50,DU-145 prostate,4.58 µM
same,TGI,DU-145 prostate,17.7 µM
same,GI50,HT29 colon,0.015 µM
same,TGI,HT29 colon,14.5 µM
same,GI50,UACC-62 melanoma,< 0.01 µM
same,TGI,UACC-62 melanoma,0.0116 µM
same,GI50,KM12 colon,6.17 µM
same,TGI,KM12 colon,18.8 µM
same,GI50,UO-31 renal,8.46 µM
same,TGI,UO-31 renal,23.5 µM
same,GI50,M14 melanoma,< 0.01 µM
same,TGI,M14 melanoma,0.0149 µM
same,GI50,UACC-257 melanoma,< 0.01 µM
same,TGI,UACC-257 melanoma,0.0246 µM
same,GI50,NCI-H23 lung,4 µM
same,TGI,NCI-H23 lung,15.3 µM
same,GI50,SF-295 CNS,5.27 µM
same,TGI,SF-295 CNS,19.8 µM
same,GI50,IGROV1 ovarian,3.08 µM
same,TGI,IGROV1 ovarian,13.5 µM
same,GI50,HOP-62 NSCLC,5.2 µM
same,TGI,HOP-62 NSCLC,20.6 µM
same,GI50,NCI/ADR-RES ovarian,19 µM
same,TGI,NCI/ADR-RES ovarian,41.3 µM
same,GI50,CAKI-1 renal,3.09 µM
same,TGI,CAKI-1 renal,9.22 µM
same,GI50,SK-MEL-28 melanoma,< 0.01 µM
same,TGI,SK-MEL-28 melanoma,0.0127 µM
same,GI50,TK-10 renal,11.8 µM
same,TGI,TK-10 renal,35.4 µM
same,GI50,OVCAR-4 ovarian,11.2 µM
same,TGI,OVCAR-4 ovarian,27.6 µM
same,GI50,OVCAR-5 ovarian,8.29 µM
same,TGI,OVCAR-5 ovarian,27.7 µM
same,GI50,LOX IMVI melanoma,0.0301 µM
same,TGI,LOX IMVI melanoma,4.13 µM
same,GI50,A498 renal,6.38 µM
same,TGI,A498 renal,24.3 µM
same,GI50,EKVX NSCLC,8.14 µM
same,TGI,EKVX NSCLC,21.6 µM
same,GI50,NCI-H226 lung,5.36 µM
same,TGI,NCI-H226 lung,18 µM
same,GI50,786-0 renal,5.62 µM
same,TGI,786-0 renal,29.7 µM
same,GI50,MALME-3M melanoma,< 0.01 µM
CC(=O)c1cc2c(o1)C(=O)c1ccccc1C2=O,GI50,SK-OV-3 ovarian,1.03 µM
same,TGI,SK-OV-3 ovarian,2.21 µM
same,GI50,COLO 205 colon,0.19 µM
same,TGI,COLO 205 colon,0.336 µM
same,GI50,SN12C renal,0.165 µM
same,TGI,SN12C renal,0.309 µM
same,GI50,HOP-92 NSCLC,0.363 µM
same,TGI,HOP-92 NSCLC,1.39 µM
same,GI50,HCT-15 colon,0.157 µM
same,TGI,HCT-15 colon,0.294 µM
same,GI50,PC-3 prostate,0.259 µM
same,TGI,PC-3 prostate,1.14 µM
same,GI50,BT-549 breast,0.141 µM
same,TGI,BT-549 breast,0.272 µM
same,GI50,HCC-2998 colon,0.16 µM
same,TGI,HCC-2998 colon,0.305 µM
same,GI50,MCF7 breast,0.165 µM
same,TGI,MCF7 breast,0.305 µM
same,GI50,MOLT-4 leukemia,0.215 µM
same,TGI,MOLT-4 leukemia,0.437 µM
same,GI50,MDA-MB-468 breast,0.22 µM
same,TGI,MDA-MB-468 breast,0.565 µM
same,GI50,ACHN renal,1.31 µM
same,TGI,ACHN renal,2.59 µM
same,GI50,SW-620 colon,0.175 µM
same,TGI,SW-620 colon,0.367 µM
same,GI50,HL-60(TB) leukemia,0.202 µM
same,TGI,HL-60(TB) leukemia,0.347 µM
same,GI50,SNB-75 CNS,0.0341 µM
same,TGI,SNB-75 CNS,0.101 µM
same,GI50,RXF 393 renal,0.163 µM
same,TGI,RXF 393 renal,0.326 µM
same,GI50,DU-145 prostate,0.137 µM
same,TGI,DU-145 prostate,0.268 µM
same,GI50,HT29 colon,0.175 µM
same,TGI,HT29 colon,0.316 µM
same,GI50,UACC-62 melanoma,0.168 µM
same,TGI,UACC-62 melanoma,0.306 µM
same,GI50,KM12 colon,0.299 µM
same,TGI,KM12 colon,1.2 µM
same,GI50,T-47D breast,0.198 µM
same,TGI,T-47D breast,0.439 µM
same,GI50,M14 melanoma,0.168 µM
same,TGI,M14 melanoma,0.306 µM
same,GI50,SNB-19 CNS,0.175 µM
same,TGI,SNB-19 CNS,0.322 µM
same,GI50,SK-MEL-2 melanoma,0.269 µM
same,TGI,SK-MEL-2 melanoma,0.434 µM
same,GI50,OVCAR-3 ovarian,0.165 µM
same,TGI,OVCAR-3 ovarian,0.315 µM
same,GI50,UACC-257 melanoma,0.126 µM
same,TGI,UACC-257 melanoma,0.254 µM
same,GI50,MDA-MB-231 breast,0.293 µM
same,TGI,MDA-MB-231 breast,1.2 µM
same,GI50,SF-268 CNS,0.234 µM
same,TGI,SF-268 CNS,0.818 µM
same,GI50,NCI-H23 lung,0.0332 µM
same,TGI,NCI-H23 lung,0.138 µM
same,GI50,SF-295 CNS,0.126 µM
same,TGI,SF-295 CNS,0.255 µM
same,GI50,IGROV1 ovarian,1.23 µM
same,TGI,IGROV1 ovarian,2.49 µM
same,GI50,HOP-62 NSCLC,0.0375 µM
same,TGI,HOP-62 NSCLC,0.133 µM
same,GI50,NCI/ADR-RES ovarian,0.215 µM
same,TGI,NCI/ADR-RES ovarian,0.562 µM
same,GI50,CAKI-1 renal,1.03 µM
same,TGI,CAKI-1 renal,2.21 µM
same,GI50,SK-MEL-5 melanoma,0.0558 µM
same,TGI,SK-MEL-5 melanoma,0.178 µM
same,GI50,NCI-H322M lung,0.177 µM
same,TGI,NCI-H322M lung,0.317 µM
same,GI50,SR leukemia,0.156 µM
same,TGI,SR leukemia,0.295 µM
same,GI50,U251 glioblastoma,0.194 µM
same,TGI,U251 glioblastoma,0.503 µM
same,GI50,HS 578T breast,0.179 µM
same,TGI,HS 578T breast,0.319 µM
same,GI50,A549 NSCLC,0.176 µM
same,TGI,A549 NSCLC,0.317 µM
same,GI50,NCI-H522 lung,0.153 µM
same,TGI,NCI-H522 lung,0.289 µM
same,GI50,SK-MEL-28 melanoma,0.186 µM
same,TGI,SK-MEL-28 melanoma,0.336 µM
same,GI50,OVCAR-8 ovarian,0.236 µM
same,TGI,OVCAR-8 ovarian,0.669 µM
same,GI50,RPMI-8226 leukemia,0.132 µM
same,TGI,RPMI-8226 leukemia,0.374 µM
same,GI50,TK-10 renal,1.1 µM
same,TGI,TK-10 renal,2.29 µM
same,GI50,OVCAR-4 ovarian,0.156 µM
same,TGI,OVCAR-4 ovarian,0.295 µM
same,GI50,OVCAR-5 ovarian,0.149 µM
same,TGI,OVCAR-5 ovarian,0.283 µM
same,GI50,A498 renal,0.178 µM
same,TGI,A498 renal,0.318 µM
same,GI50,MDA-MB-435 melanoma,0.156 µM
same,TGI,MDA-MB-435 melanoma,0.291 µM
same,GI50,EKVX NSCLC,0.363 µM
same,TGI,EKVX NSCLC,1.47 µM
same,GI50,NCI-H226 lung,0.166 µM
same,TGI,NCI-H226 lung,0.303 µM
same,GI50,786-0 renal,0.707 µM
same,TGI,786-0 renal,2.04 µM
same,GI50,CCRF-CEM leukemia,0.357 µM
same,TGI,CCRF-CEM leukemia,1.09 µM
same,GI50,NCI-H460 NSCLC,0.172 µM
same,TGI,NCI-H460 NSCLC,0.314 µM
same,GI50,MALME-3M melanoma,0.148 µM
same,TGI,MALME-3M melanoma,0.28 µM
same,GI50,SF-539 CNS,0.159 µM
same,TGI,SF-539 CNS,0.296 µM
